Measured values published in PMC11187126, “Structure and dynamics of the pyroglutamylated RF-amide peptide QRFP receptor GPR103” (Nature Communications, 2024).
Where two headings read alike, the source gives them in different places. No end group written: not given here.

Target: T1, GPR103 ΔCterm (Homo sapiens, UniProt Q96P65)
T1 construct: we truncated the C-terminal residues after G366 of human GPR103; expressed in transfected cells; host or cells: HEK293 cells, pCAGGS vector
T1 sequence (Q96P65 1-366): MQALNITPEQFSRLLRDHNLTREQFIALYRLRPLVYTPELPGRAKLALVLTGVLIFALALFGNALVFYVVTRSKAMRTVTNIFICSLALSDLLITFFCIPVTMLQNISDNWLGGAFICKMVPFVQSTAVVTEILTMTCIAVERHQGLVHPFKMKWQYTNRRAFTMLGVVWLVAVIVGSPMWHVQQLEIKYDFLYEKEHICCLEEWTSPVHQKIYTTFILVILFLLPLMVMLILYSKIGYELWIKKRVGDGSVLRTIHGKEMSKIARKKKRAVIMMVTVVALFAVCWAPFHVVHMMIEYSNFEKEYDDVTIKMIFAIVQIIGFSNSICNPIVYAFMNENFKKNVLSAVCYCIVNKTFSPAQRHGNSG
Test: TGFα shedding assay; Exp. level WT (1:20)
Assay type: cell-based
Method: For the TGFα shedding assay and the flow cytometry analysis, we used human full-length QRFPR-encoding plasmids. Specifically, GPR103 was N-terminally modified with an HA signal sequence followed by a FLAG epitope and then a flexible linker ([…]; the FLAG epitope is underlined) and inserted into the pCAGGS vector. Plasmid encoding GPR103 mutants were generated using Quickchange Site-Directed Mutagensis kit (Agilent).
The TGFα shedding assay was performed as described previously with minor modifications. Plasmid transfection was performed in a 6-well plate with a mixture of 500 ng (per well in a 6-well plate) AP-TGFα-encoding plasmid and 200 ng GPR103-encoding plasmid. After 1-day culture, the transfected cells were harvested by trypsinization, pelleted by centrifugation at 190 × g for 5 min, and washed once with 5 mM HEPES (pH 7.4)-containing Hank’s Balanced Salt Solution (HBSS). After centrifugation, the cells were resuspended in 8 mL of the HEPES-containing HBSS. The cell suspension was seeded in a 96-well culture plate (cell plate) at a volume of 90 μL (per well hereafter) and incubated in a 37 °C incubator with 5% CO2 for 30 min. […] After spinning the cell plates at 190 × g for 2 min, 80 μL of conditioned media was transferred to an empty 96-well plate (conditioned media (CM) plate). Then, 80 μL of AP reaction solution (10 mM p-nitrophenylphosphate (p-NPP), 120 mM Tris-HCl (pH 9.5), 40 mM NaCl, and 10 mM MgCl2) was dispensed into the cell plates and the CM plates. Absorbance at 405 nm of the plates was measured using a microplate reader (SpectraMax 340 PC384, Molecular Devices) before and after 1-h incubation at room temperature. Ligand-induced AP-TGFα release was calculated by subtracting spontaneous AP-TGFα release signal from ligand-induced AP-TGFα release signal. The AP-TGFα release signals were fitted to a four-parameter sigmoidal concentration–response curve, using the Prism 10 software (GraphPad Prism). For each replicate experiment, the pEC50 parameter (negative logarithmic values of EC50 values) of the individual GPR103 mutants were normalized to that of the wild-type GPR103 performed in parallel, and resulting ∆pEC50 values were used to denote ligand response activity of the mutants. […]
Exp. le vel: WT (1:5 0)Exp. le vel: WT (1:5 0)Exp. le vel: WT (1:5 0)Exp. le vel: WT (1:2 0)Exp. le vel: WT (1:2 0)Exp. le vel: WT (1:1 0) […]
L1 4N - t e r mA F2 5N - t e r mA I 2 6N - t e r mA Y 2 9N - t e r mA C 9 82 .5 7A T10 22 .6 1A Exp . l eve l: WT (1 :5)Exp . l evel : >WT (1 :1)Exp. le vel: WT (1:2 0)Exp. le vel: WT (1:2 0)Exp. le vel: WT (1:5 0)Exp . l eve l: WT (1 :1) […]
Exp. le vel: WT (1:1 0)Exp. le vel: WT (1:2 0) C 1 1 83 .2 5AExp. le vel: WT (1:5 0)Exp. le vel: WT (1:5 0)Exp. le vel: WT (1:2 0)Exp . l eve l: WT (1 :5) […]
Exp. le vel: WT (1:5 0)Exp. le vel: WT (1:1 0)Exp. le vel: WT (1:5 0) E203ECL2AExp . l evel : >WT (1 :1)Exp. le vel: WT (1:5 0)Exp. le vel: WT (1:5 0) […]
Exp . l eve l: WT (1 :1) F28Exp. le vel: WT (1:5 0) C 2 8 56 .4 7AExp. le vel: WT (1:2 0) WExp. le vel: WT (1:2 0) F28Exp. le vel: WT (1:5 0)Exp . l evel : >WT (1 :1) […]
Exp. le vel: WT (1:5 0)Exp. le vel: WT (1:5 0) C 3 2 77 .4 8AExp . l eve l: WT (1 :5)Exp . l evel : >WT (1 :1)Exp . l evel : >WT (1 :1) […]
Suppl eme nt ary Figure 1 | Mutational analysis of GPR103. […]
mutants. Data are presented as mean values ± SEM, normally n=3-5; dots), each performed in triplicate. b-d Cell-surface expression (b) and QRFP26-in-duced activation of GPR103 (c, d) were analyzed by the flow cytometry and the TGFα shedding assay, respectively. From the concentration–response curves (a), Emax (c) and ΔpEC50 (d) values relative to the wild type were calculated. Colors in the mutant bars indicate an expression level matching to that of titrated wild type. Statistical analyses were performed using the ordinary one-way ANOVA followed by Dunnett tests with the expression-matched […]

Emax (Exp. #1): 83.85 % WT
Emax (Exp. #2): 86.40 % WT
Emax (Exp. #3): 89.99 % WT
Emax (mean, read-out: Emax): 86.8%
EC50 (n = 3): 11.2 nM
Substance: TSGPLGNLAEELNGYSRKKGGFSFRF-NH2 [QRFP26]
